Experimental data: patent US20090012045A1, “Methods of Treating Cell Proliferative Disorders” (RIGEL PHARMACEUTICALS, INC., priority 2007, published 2009)

Assays:
[1] = system: MCF7; settings: MCF7 (Breast Cancer)
[2] = system: UO-31; settings: UO-31 (Renal Cancer)
[3] = system: SK-MEL-28; settings: SK-MEL-28 (Melanoma)
[4] = system: UACC-62; settings: UACC-62 (Melanoma)
[5] = system: OVCAR-8; settings: OVCAR-8 (Ovarian Cancer)
[6] = system: HOP-92; settings: HOP-92 (Non-Small Cell Lung Cancer)
[7] = system: SF-268; settings: SF-268 (CNS Cancer)
[8] = system: IGROV1; settings: IGROV1 (Ovarian Cancer)
[9] = system: SR; settings: SR (Leukemia)
[10] = system: CCRF-CEM; settings: CCRF-CEM (Leukemia)
[11] = system: U251; settings: U251 (CNS Cancer)
[12] = system: COLO 205; settings: COLO 205 (Colon Cancer)
[13] = system: SK-OV-3; settings: SK-OV-3 (Ovarian Cancer)
[14] = system: T-47D; settings: T-47D (Breast Cancer)
[15] = system: SK-MEL-2; settings: SK-MEL-2 (Melanoma)
[16] = system: UACC-257; settings: UACC-257 (Melanoma)
[17] = system: MDA-MB-435; settings: MDA-MB-435 (Breast Cancer)
[18] = system: SK-MEL-5; settings: SK-MEL-5 (Melanoma)
[19] = system: 786-0; settings: 786-0 (Renal Cancer)
[20] = system: HCC-2998; settings: HCC-2998 (Colon Cancer)
[21] = system: ACHN; settings: ACHN (Renal Cancer)
[22] = system: HOP-62; settings: HOP-62 (Non-Small Cell Lung Cancer)
[23] = system: SF-295; settings: SF-295 (CNS Cancer)
[24] = system: RXF 393; settings: RXF 393 (Renal Cancer)
[25] = system: SNB-19; settings: SNB-19 (CNS Cancer)
[26] = system: K-562; settings: K-562 (Leukemia)
[27] = system: A549/ATCC; settings: A549/ATCC (Non-Small Cell Lung Cancer)
[28] = system: SF-539; settings: SF-539 (CNS Cancer)
[29] = system: RPM1-8226; settings: RPM1-8226 (Leukemia)
[30] = system: HT29; settings: HT29 (Colon Cancer)
[31] = system: OVCAR-4; settings: OVCAR-4 (Ovarian Cancer)

COc1cc(Nc2ncc(F)c(Nc3ccc4c(n3)NC(=O)C(C)(C)O4)n2)cc(OC)c1OC.O=S(=O)(O)c1ccccc1 [Compound 1 (besylate salt), N4-(2,2-Dimethyl-3-oxo-4H-5-pyrid[1,4]oxazin-6-yl)-5-fluoro-N2-(3,4,5-trimethoxyphenyl)-2,4-pyrimidinediamine Benzenesulfonic Acid Salt]
GI50 [1]: 2.72 µM
TGI [1]: >1.00E−4
CC50 ([1]; read-out: LC50): > 100 µM
GI50 [2]: 0.596 µM
TGI [2]: >1.00E−4
CC50 ([2]; read-out: LC50): > 100 µM
GI50 [3]: > 100 µM
TGI [3]: >1.00E−4
CC50 ([3]; read-out: LC50): > 100 µM
TGI [4]: >1.00E−4
CC50 ([4]; read-out: LC50): > 100 µM
GI50 [5]: > 100 µM
TGI [5]: >1.00E−4
CC50 ([5]; read-out: LC50): > 100 µM
GI50 [6]: 0.41 µM
CC50 ([6]; read-out: LC50): > 100 µM
GI50 [7]: 1.7 µM
TGI [7]: >1.00E−4
CC50 ([7]; read-out: LC50): > 100 µM
GI50 [8]: 0.796 µM
TGI [8]: >1.00E−4
CC50 ([8]; read-out: LC50): > 100 µM
GI50 [9]: 3.56 µM
TGI [9]: >1.00E−4
CC50 ([9]; read-out: LC50): > 100 µM
TGI [10]: >1.00E−4
CC50 ([10]; read-out: LC50): > 100 µM
TGI [11]: >1.00E−4
CC50 ([11]; read-out: LC50): > 100 µM
GI50 [12]: 7.26 µM
TGI [12]: >1.00E−4
CC50 ([12]; read-out: LC50): > 100 µM
GI50 [13]: 0.429 µM
TGI [13]: >1.00E−4
CC50 ([13]; read-out: LC50): > 100 µM
TGI [14]: >1.00E−4
CC50 ([14]; read-out: LC50): > 100 µM
GI50 [15]: > 100 µM
TGI [15]: >1.00E−4
CC50 ([15]; read-out: LC50): > 100 µM
GI50 [16]: > 100 µM
TGI [16]: >1.00E−4
CC50 ([16]; read-out: LC50): > 100 µM
GI50 [17]: 3.62 µM
TGI [17]: >1.00E−4
CC50 ([17]; read-out: LC50): > 100 µM
GI50 [18]: > 100 µM
TGI [18]: >1.00E−4
CC50 ([18]; read-out: LC50): > 100 µM
GI50 [19]: 0.873 µM
TGI [19]: >1.00E−4
CC50 ([19]; read-out: LC50): > 100 µM
GI50 [20]: > 100 µM
TGI [20]: >1.00E−4
CC50 ([20]; read-out: LC50): > 100 µM
GI50 [21]: 1.24 µM
TGI [21]: >1.00E−4
CC50 ([21]; read-out: LC50): > 100 µM
GI50 [22]: 0.537 µM
TGI [22]: >1.00E−4
CC50 ([22]; read-out: LC50): > 100 µM
TGI [23]: >1.00E−4
CC50 ([23]; read-out: LC50): > 100 µM
GI50 [24]: 0.196 µM
TGI [24]: 7.74E−7
CC50 ([24]; read-out: LC50): > 100 µM
GI50 [25]: > 100 µM
TGI [25]: >1.00E−4
CC50 ([25]; read-out: LC50): > 100 µM
GI50 [26]: > 100 µM
TGI [26]: >1.00E−4
CC50 ([26]; read-out: LC50): > 100 µM
TGI [27]: >1.00E−4
CC50 ([27]; read-out: LC50): > 100 µM
GI50 [28]: 0.605 µM
CC50 ([28]; read-out: LC50): > 100 µM
GI50 [29]: > 100 µM
TGI [29]: >1.00E−4
CC50 ([29]; read-out: LC50): > 100 µM
GI50 [30]: 2.19 µM
TGI [30]: >1.00E−4
CC50 ([30]; read-out: LC50): > 100 µM
GI50 [31]: > 100 µM
TGI [31]: >1.00E−4
CC50 ([31]; read-out: LC50): > 100 µM
